Measurements reported in patent US9266921B2, “PGC-1α-modulating peptides” (Lipotec, S.A., priority 2011, dated 2016).

system: human PGC-1α promoter; test: Modulation of the human PGC-1α promoter activity (luciferase reporter, Hep G2); format: cell-based; conditions: Hep G2 transfected with luciferase under human PGC-1α promoter; peptide 0.5 mg/mL, 24 hours; normalized to carrier = 100%
Method: The modulation capacity of the promoter of human PGC-1α is evaluated by the peptides in the invention in the hepatocellular Hep G2 carcinoma cell line transfected with the luciferase gene under the regulation of the human PGC-1α promoter. The cells are seeded at a density of 20,000 cells/25 cm^2 plate) and incubated for 24 hours in RPMI-1640 complete medium, after which the peptides of the invention are added at 0.5 mg/mL and are incubated for another 24 hours. The RPMI-1640 complete medium (carrier) is used as a negative control. The measurement of the promoter's activity is carried out using the Steady-Glo® Luciferase Assay System (PROMEGA) kit following the manufacturer's instructions. The luminescence values are read on a luminometer […] and the activity of the promoter is determined, which is normalized with regards to the values of the negative control.

Substance | Activity of the PGC-1α promoter (%)
Ac-L-His-L-Ile-L-Tyr-L-Val-L-Ala-L-Val-NH2 (Ac-HIYVAV-NH2) [Ac-SEQ ID NO. 25-NH2] | 76
Ac-L-His-L-Ile-L-Tyr-L-Val-L-Arg-L-Thr-NH2 (Ac-HIYVRT-NH2) [Ac-SEQ ID NO. 10-NH2] | 115
Ac-L-His-L-Ile-L-Tyr-L-Val-L-Arg-L-Val-NH2 (Ac-HIYVRV-NH2) [Ac-SEQ ID NO. 33-NH2] | 117
Ac-L-His-L-Ile-L-Val-L-Val-L-Ala-L-Thr-NH2 (Ac-HIVVAT-NH2) [Ac-SEQ ID NO. 6-NH2] | 72
Ac-L-His-L-Ile-L-Val-L-Val-L-Ala-L-Val-NH2 (Ac-HIVVAV-NH2) [Ac-SEQ ID NO. 29-NH2] | 81
Ac-L-His-L-Val-L-Tyr-L-Val-L-Ala-L-Thr-NH2 (Ac-HVYVAT-NH2) [Ac-SEQ ID NO. 4-NH2] | 77
Ac-L-His-L-Val-L-Tyr-L-Val-L-Ala-L-Val-NH2 (Ac-HVYVAV-NH2) [Ac-SEQ ID NO. 27-NH2] | 42
Ac-L-His-L-Val-L-Val-L-Val-L-Ala-L-Thr-NH2 (Ac-HVVVAT-NH2) [Ac-SEQ ID NO. 8-NH2] | 89
Ac-L-Ser-L-Ile-L-Tyr-L-Val-Gly-L-Thr-NH2 (Ac-SIYVGT-NH2) [Ac-SEQ ID NO. 18-NH2] | 64
Ac-L-Ser-L-Ile-L-Tyr-L-Val-L-Ala-L-Val-NH2 (Ac-SIYVAV-NH2) [Ac-SEQ ID NO. 26-NH2] | 40
Ac-L-Ser-L-Ile-L-Val-L-Val-L-Ala-L-Thr-NH2 (Ac-SIVVAT-NH2) [Ac-SEQ ID NO. 7-NH2] | 145
Ac-L-Ser-L-Ile-L-Val-L-Val-L-Ala-L-Val-NH2 (Ac-SIVVAV-NH2) [Ac-SEQ ID NO. 30-NH2] | 120
Ac-L-Ser-L-Ile-L-Val-L-Val-L-Arg-L-Thr-NH2 (Ac-SIVVRT-NH2) [Ac-SEQ ID NO. 15-NH2] | 150
Ac-L-Ser-L-Val-L-Tyr-L-Val-Gly-L-Thr-NH2 (Ac-SVYVGT-NH2) [Ac-SEQ ID NO. 20-NH2] | 76
Ac-L-Ser-L-Val-L-Val-L-Val-Gly-L-Thr-NH2 (Ac-SVVVGT-NH2) [Ac-SEQ ID NO. 24-NH2] | 90
Ac-L-Ser-L-Val-L-Val-L-Val-L-Ala-L-Thr-NH2 (Ac-SVVVAT-NH2) [Ac-SEQ ID NO. 9-NH2] | 62

The next lines start with the values.

Activity of the PGC-1α promoter (%) | Substance
118 | Ac-L-His-L-Ile-L-Val-L-Val-L-Arg-L-Val-NH2 (Ac-HIVVRV-NH2) [Ac-SEQ ID NO. 37-NH2]
75 | Ac-L-His-L-Val-L-Tyr-L-Val-Gly-L-Val-NH2 (Ac-HVYVGV-NH2) [Ac-SEQ ID NO. 43-NH2]
132 | Ac-L-His-L-Val-L-Tyr-L-Val-L-Arg-L-Val-NH2 (Ac-HVYVRV-NH2) [Ac-SEQ ID NO. 35-NH2]
186 | Ac-L-His-L-Val-L-Val-L-Val-L-Arg-L-Val-NH2 (Ac-HVVVRV-NH2) [Ac-SEQ ID NO. 39-NH2]
64 | Ac-L-Ser-L-Ile-L-Tyr-L-Val-Gly-L-Val-NH2 (Ac-SIYVGV-NH2) [Ac-SEQ ID NO. 42-NH2]
134 | Ac-L-Ser-L-Ile-L-Tyr-L-Val-L-Arg-L-Val-NH2 (Ac-SIYVRV-NH2) [Ac-SEQ ID NO. 34-NH2]
180 | Ac-L-Ser-L-Ile-L-Val-L-Val-L-Arg-L-Val-NH2 (Ac-SIVVRV-NH2) [Ac-SEQ ID NO. 38-NH2]
67 | Ac-L-Ser-L-Val-L-Tyr-L-Val-Gly-L-Val-NH2 (Ac-SVYVGV-NH2) [Ac-SEQ ID NO. 44-NH2]
136 | Ac-L-Ser-L-Val-L-Tyr-L-Val-L-Arg-L-Val-NH2 (Ac-SVYVRV-NH2) [Ac-SEQ ID NO. 36-NH2]
